Experimental data as given in patent US8956445B2, “High stability diionic liquid salts” (Sigma-Aldrich Co., priority 2004, dated 2015).
Where two headings read alike, the source gives them in different places.

Experiments:
[1] = Refractive index (Abbe-3L refractometer); assay type: physicochemical; settings: 23° C.
Protocol: (§1) The densities of the ionic liquids or, more correctly, […] (used synonymously except as indicated otherwise explicitly or by context) was determined at 23° C. by placing 2.0 mL of the ionic liquid in a 2.0 mL volumetric tube and weighing by difference. The melting points of the ionic liquids were determined using a Perkin Elmer Pyris 1 Differential Scanning calorimeter (Boston, Mass.). Typical methods involved using a 10° C./min temperature ramp to determine and identify the first and second order thermal transitions. […] For solid compounds, the melting points were verified using a capillary melting point apparatus. Refractive index measurements were conducted at 23° C. using a Bausch & Lomb Abbe-3L refractometer.

[2] = Density (2.0 mL volumetric tube, weighing by difference); assay type: physicochemical; settings: 23° C.
Protocol: as §1

[3] = values taken from reference 31, cited from earlier work
[4] = Solvation interaction parameters by inverse gas-liquid chromatography (Abraham solvation model); assay type: physicochemical
Protocol: The preparation of the capillary columns for inverse gas-liquid chromatographic analysis was performed using a previously described procedure.^31 All capillary columns had efficiencies between 2100 to 2500 plates/meter. Characterization of the capillary columns and probe molecule descriptions are listed in supplemental information. Multiple linear regression analysis (MLRA) and statistical calculations were performed using the program Analyse-it (Microsoft, USA).
We have previously reported that the Abraham solvation model, a linear free energy approach that utilizes inverse gas-liquid chromatography to describe the solvation properties of a liquid, can be used to characterize room temperature ionic liquids.^31 Described by equation 1, the model provides the so-called “interaction parameters” (r, s, a, b, l) by using multiple linear regression analysis to fit the retention factor (k, determined chromatographically) to the solute descriptors (R2, π2^H, α2^H, β2^H, log L^16) for a wide variety of probe solute molecules. […] The solvation properties of four dicationic ionic liquids (see Table 4) were evaluated and the interaction parameters compared to those obtained for their traditional monocationic analogues 1-butyl-3-methylimidazolium and 1-butyl-1-methylpyrrolidinium ionic liquids.
Previously we characterized a large number of room temperature ionic liquids in terms of multiple solvation interactions using the solvation parameter model, shown in equation 3.^44 log k=c+rR2+sπ2^H+aα2^H+bβ2^H+l log L^16 [3] This approach utilizes inverse gas-liquid chromatography and allows the use of a large number of probe molecules to deconvolute solute retention in terms of the type and magnitude of individual solvation interactions. The solute descriptors (R2, π2^H, α2^H, β2^H, log L^16) from Equation 3 are obtained from the literature for many probe molecules containing a variety of functional groups.^45 The retention factor is determined chromatographically. The solute descriptors and retention factors are subjected to multiple linear regression analysis to obtain the interaction parameter coefficients (r, s, a, b, l), which ultimately characterize the stationary phase: r is the ability of the diionic liquid containing-stationary phase to interact with π and n electrons of the solute, s is a measure of the dipolarity/polarizability of the diionic liquid containing-stationary phase, a defines the diionic liquid containing-stationary phase hydrogen bond basicity, b is a measure of the hydrogen bond acidity, and/refers to the ability of the diionic liquid containing-stationary phase to separate adjacent members of a homologous series.^46
Test solutes used to determine interaction parameters and solvation thermodynamics were dissolved in dichloromethane. A Hewlett-Packard model 5890 gas chromatograph and a Hewlett-Packard 6890 series integrator were used for all separations. Split injection and flame ionization detection were utilized with injection and detection temperatures of 250° C. Helium was used as the carrier gas with a column inlet pressure of 3.1 psi and flow rate of 1.0 mL/min. Methane was used to determine the dead volume of the column. Multiple linear regression analysis and statistical calculations were performed using the program Analyze-it (Microsoft).

Question: Which results are given for “1-vinyl-3-dodecylimidazolium bis[(trifluoromethane)sulfonyl]imidate [dvim-NTf2]”?
Answer: Refractive Index [1]: 1.448; Density [2]: 1.23 g/mL

Question: Which “Refractive Index” value [1] does the source give for “1-vinyl-3-hexylimidazolium bis[(trifluoromethane)sulfonyl]imidate [hvim-NTf2]” here?
Answer: 1.443

Question: And the Density [2]?
Answer: 1.36 g/mL

Question: For “1-vinyl-3-nonylimidazolium bis[(trifluoromethane)sulfonyl]imidate [nvim-NTf2]”, which “Refractive Index” value [1] is on record?
Answer: 1.445

Question: And the Density [2]?
Answer: 1.28 g/mL

Question: What does the source list for `CCCC[N+]1(C)CCCC1.O=S(=O)([N-]S(=O)(=O)C(F)(F)F)C(F)(F)F` [BMPY—NTf2, 1-butyl-1-methylpyrrolidinium bis[(trifluoromethylsulfonyl)imide]]?
Answer: a (hydrogen bond basicity) ([3]; 40° C.): 2.08; b (hydrogen bond acidity) ([3]; 40° C.): 0.16; c (interaction parameter table, constant) ([3]; 40° C.): −2.78; l (dispersion forces) ([3]; 40° C.): 0.68; r (interaction via nonbonding and π-electrons) ([3]; 40° C.): 0; s (dipolarity/polarizability) ([3]; 40° C.): 1.69; a (hydrogen bond basicity) ([3]; 70° C.): 1.78; b (hydrogen bond acidity) ([3]; 70° C.): 0; c (interaction parameter table, constant) ([3]; 70° C.): −2.80; l (dispersion forces) ([3]; 70° C.): 0.56; r (interaction via nonbonding and π-electrons) ([3]; 70° C.): 0; s (dipolarity/polarizability) ([3]; 70° C.): 1.53; a (hydrogen bond basicity) ([3]; 100° C.): 1.55; b (hydrogen bond acidity) ([3]; 100° C.): 0; c (interaction parameter table, constant) ([3]; 100° C.): −2.92; l (dispersion forces) ([3]; 100° C.): 0.48; r (interaction via nonbonding and π-electrons) ([3]; 100° C.): 0; s (dipolarity/polarizability) ([3]; 100° C.): 1.44

Question: With `Cc1n(C)cc[n+]1CCC[n+]1ccn(C)c1C.[Br-].[Br-]` [C3(m2im)2-Br, 1,3-di(2,3-dimethylimidaolium)propane di-bromide] as the compound, how does the “Miscibility with Heptane” value read?
Answer: Immiscible

Question: And the “Miscibility with Water” value?
Answer: Miscible

Question: What does the source list for `Cc1n(C)cc[n+]1CCC[n+]1ccn(C)c1C.O=S(=O)([N-]S(=O)(=O)C(F)(F)F)C(F)(F)F.O=S(=O)([N-]S(=O)(=O)C(F)(F)F)C(F)(F)F` [C3(m2im)2-NTf2, 1,3-di(2,3-dimethylimidazolium)propane di-bis[(trifluoromethyl)sulfonyl]imidate]?
Answer: Miscibility with Heptane: Immiscible; Miscibility with Water: Immiscible

Question: For `Cc1n(C)cc[n+]1CCC[n+]1ccn(C)c1C.F[P-](F)(F)(F)(F)F.F[P-](F)(F)(F)(F)F` [C3(m2im)2-PF6, 1,3-di(2,3-dimethylimidazolium)propane di-hexafluorophosphate], which “Miscibility with Heptane” value is on record?
Answer: Immiscible

Question: And the “Miscibility with Water” value?
Answer: Immiscible

Question: With `C[N+]1(CCC[N+]2(C)CCCC2)CCCC1.O=S(=O)([N-]S(=O)(=O)C(F)(F)F)C(F)(F)F.O=S(=O)([N-]S(=O)(=O)C(F)(F)F)C(F)(F)F` [C3(mpy)2-NTf2, 1,3-di(methylpyrrolidinium)propane di-bis[(trifluoromethyl)sulfonyl]imidate] as the compound, how does the “Miscibility with Heptane” value read?
Answer: Immiscible

Question: What about the “Miscibility with Water” value of the same compound?
Answer: Immiscible

Question: What does the source list for `C[n+]1ccn(CCCCn2cc[n+](C)c2)c1.O=S(=O)([N-]S(=O)(=O)C(F)(F)F)C(F)(F)F.O=S(=O)([N-]S(=O)(=O)C(F)(F)F)C(F)(F)F` [C4(mim)2-NTf2]?
Answer: a (hydrogen bond basicity) ([4]; 40° C.): 2.11; b (hydrogen bond acidity) ([4]; 40° C.): 0.50; c (interaction parameter table, constant) ([4]; 40° C.): −2.94; l (dispersion forces) ([4]; 40° C.): 0.56; r (interaction via nonbonding and π-electrons) ([4]; 40° C.): 0.25; s (dipolarity/polarizability) ([4]; 40° C.): 2.01; a (hydrogen bond basicity) ([4]; 70° C.): 1.77; b (hydrogen bond acidity) ([4]; 70° C.): 0.45; c (interaction parameter table, constant) ([4]; 70° C.): −2.91; l (dispersion forces) ([4]; 70° C.): 0.44; r (interaction via nonbonding and π-electrons) ([4]; 70° C.): 0.22; s (dipolarity/polarizability) ([4]; 70° C.): 1.78; a (hydrogen bond basicity) ([4]; 100° C.): 1.57; b (hydrogen bond acidity) ([4]; 100° C.): 0.33; c (interaction parameter table, constant) ([4]; 100° C.): −3.06; l (dispersion forces) ([4]; 100° C.): 0.37; r (interaction via nonbonding and π-electrons) ([4]; 100° C.): 0.20; s (dipolarity/polarizability) ([4]; 100° C.): 1.69

Question: For `C[n+]1ccn(CCCCCCn2cc[n+](C)c2)c1.F[B-](F)(F)F.F[B-](F)(F)F` [C6(mim)2-BF4, 1,6-di(3-methylimidazolium)hexane di-tetrafluoroborate], which “Miscibility with Heptane” value is on record?
Answer: Immiscible

Question: What about the “Miscibility with Water” value of the same compound?
Answer: Miscible

Question: Which results are given for `C[n+]1ccn(CCCCCCn2cc[n+](C)c2)c1.F[P-](F)(F)(F)(F)F.F[P-](F)(F)(F)(F)F` [C6(mim)2-PF6, 1,6-di(3-methylimidazolium)hexane di-hexafluorophosphate]?
Answer: Miscibility with Heptane: Immiscible; Miscibility with Water: Immiscible

Question: Which “Miscibility with Heptane” value does the source give for `CCCC[N+]1(CCCCCCCCC[N+]2(CCCC)CCCC2)CCCC1.F[P-](F)(F)(F)(F)F.F[P-](F)(F)(F)(F)F` [C9(bpy)2-PF6, 1,9-di(butylpyrrolidinium)nonane di-hexafluorophosphate] here?
Answer: Immiscible

Question: What about the “Miscibility with Water” value of the same compound?
Answer: Immiscible

Question: For `Cc1n(C)cc[n+]1CCCCCCCCC[n+]1ccn(C)c1C.[Br-].[Br-]` [C9(m2im)2-Br, 1,9-di(2,3-dimethylimidazolium)nonane di-bromide], which “Miscibility with Heptane” value is on record?
Answer: Immiscible

Question: What about the “Miscibility with Water” value of the same compound?
Answer: Miscible

Question: Which “Miscibility with Heptane” value does the source give for `Cc1n(C)cc[n+]1CCCCCCCCC[n+]1ccn(C)c1C.F[P-](F)(F)(F)(F)F.F[P-](F)(F)(F)(F)F` [C9(m2im)2-PF6, 1,9-di(2,3-dimethylimidazolium)nonane di-hexafluorophosphate] here?
Answer: Immiscible

Question: And the “Miscibility with Water” value?
Answer: Immiscible

Question: Which “Miscibility with Heptane” value does the source give for `Cn1cc[n+](CCCCCCCCC[n+]2ccn(C)c2)c1.F[P-](F)(F)(F)(F)F.F[P-](F)(F)(F)(F)F` [C9(mim)2-PF6, 1,9-di(3-methylimidazolium)nonane di-hexafluorophosphate] here?
Answer: Immiscible

Question: What about the “Miscibility with Water” value of the same compound?
Answer: Immiscible

Question: With `C[N+]1(CCCCCCCCC[N+]2(C)CCCC2)CCCC1.F[P-](F)(F)(F)(F)F.F[P-](F)(F)(F)(F)F` [C9(mpy)2-PF6, 1,9-di(methylpyrrolidinium)nonane di-hexafluorophosphate] as the compound, how does the “Miscibility with Heptane” value read?
Answer: Immiscible

Question: What about the “Miscibility with Water” value of the same compound?
Answer: Immiscible

Question: What does the source list for `C=Cn1cc[n+](CCCCCCCCC[n+]2ccn(C=C)c2)c1.O=S(=O)([N-]S(=O)(=O)C(F)(F)F)C(F)(F)F.O=S(=O)([N-]S(=O)(=O)C(F)(F)F)C(F)(F)F` [C9(vim)2-NTf2]?
Answer: Refractive Index [1]: 1.457; Density [2]: 1.47 g/mL

Question: What does the source list for `C=Cn1cc[n+](CCCCCCCCCCC[n+]2ccn(C=C)c2)c1.O=S(=O)([N-]S(=O)(=O)C(F)(F)F)C(F)(F)F.O=S(=O)([N-]S(=O)(=O)C(F)(F)F)C(F)(F)F` [C11(vim)2-NTf2]?
Answer: Refractive Index [1]: 1.457; Density [2]: 1.44 g/mL

Question: What does the source list for `C=Cn1cc[n+](CCCCCCCCCCCC[n+]2ccn(C=C)c2)c1.O=S(=O)([N-]S(=O)(=O)C(F)(F)F)C(F)(F)F.O=S(=O)([N-]S(=O)(=O)C(F)(F)F)C(F)(F)F` [C12(vim)2-NTf2]?
Answer: Refractive Index [1]: 1.458; Density [2]: 1.42 g/mL
